{"source": "ChEMBL document CHEMBL4616632", "about": "“Discovery of Cyclic Boronic Acid QPX7728, an Ultrabroad-Spectrum Inhibitor of Serine and Metallo-β-lactamases” (J Med Chem, 2020)", "key": {"Pseudomonas aeruginosa [1]": {"tested_on": "Pseudomonas aeruginosa", "assay": "Potentiation of meropenem-induced antibacterial activity against Pseudomonas aeruginosa assessed as meropenem MIC90 at 8 ug/ml by broth microdilution method (reference value: 16 ug/ml)", "type": "functional"}, "Enterobacterales [2]": {"tested_on": "Enterobacterales", "assay": "Potentiation of cefepime-induced antibacterial activity against Enterobacterales assessed as cefepime MIC90 at 8 ug/ml by broth microdilution method (Rvb > 32 ug/ml)", "type": "functional"}, "[3]": {"assay": "Cmax in rat at 10 mg/kg, iv administered as infusion for 0.5 hrs by HPLC/MS analysis", "type": "ADME, organism-based", "parameters": "dose 10 mg/kg, route intravenous", "conditions": "in vivo"}, "Klebsiella pneumoniae [4]": {"tested_on": "Klebsiella pneumoniae", "assay": "Inhibition of Klebsiella pneumoniae KP1081 NDM-1 assessed as minimum concentration of compound required to reduce the MIC of biapenem to 1 ug/ml"}, "Acinetobacter baumannii [5]": {"tested_on": "Acinetobacter baumannii", "assay": "Potentiation of meropenem-induced antibacterial activity against carbapenem-resistant Acinetobacter baumannii assessed as meropenem MIC50 at 8 ug/ml by broth microdilution method (Rvb > 32 ug/ml)", "type": "functional"}, "[6]": {"assay": "Oral bioavailability in rat at 1000 mg/kg administered via gavage by HPLC/MS analysis", "type": "ADME, organism-based", "conditions": "in vivo"}, "[7]": {"assay": "AUC in rat at 300 mg/kg, iv administered as infusion for 0.5 hrs by HPLC/MS analysis", "type": "ADME, organism-based", "conditions": "in vivo"}, "[8]": {"assay": "Cmax in rat at 30 mg/kg, po administered via gavage by HPLC/MS analysis", "type": "ADME, organism-based", "parameters": "dose 30 mg/kg, route oral", "conditions": "in vivo"}, "[9]": {"assay": "Lipophilicity, log D of the compound at pH 7.4", "type": "physicochemical", "conditions": "buffer"}, "[10]": {"assay": "Half life in rat at 1000 mg/kg, po administered via gavage by HPLC/MS analysis", "type": "ADME, organism-based", "conditions": "in vivo"}, "Acinetobacter baumannii [11]": {"tested_on": "Acinetobacter baumannii", "assay": "Potentiation of ceftolozane-induced antibacterial activity against carbapenem-resistant Acinetobacter baumannii assessed as ceftolozane MIC90 at 8 ug/ml by broth microdilution method (Rvb > 32 ug/ml)", "type": "functional"}, "[12]": {"molecular_target": "Beta-lactamase OXA-23 (Acinetobacter baumannii) (UniProt Q9L4P2)", "sequence (Q9L4P2 whole entry)": "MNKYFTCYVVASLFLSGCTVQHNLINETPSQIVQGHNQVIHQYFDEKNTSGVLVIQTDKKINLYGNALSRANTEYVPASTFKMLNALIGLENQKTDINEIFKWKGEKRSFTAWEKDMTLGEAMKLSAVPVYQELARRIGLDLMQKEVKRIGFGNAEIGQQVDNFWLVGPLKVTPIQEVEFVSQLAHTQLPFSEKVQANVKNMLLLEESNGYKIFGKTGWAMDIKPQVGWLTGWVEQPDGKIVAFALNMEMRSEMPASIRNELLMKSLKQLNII", "assay": "Inhibition of Acinetobacter baumannii AB1054 OXA-23 assessed as minimum concentration of compound needed to reduce the MIC of meropenem to 8 ug/ml"}, "[13]": {"assay": "Protein binding in rat plasma", "type": "ADME, cell-free", "conditions": "read-out: PPB (converted)"}, "[14]": {"assay": "Clearance in rat at 300 mg/kg, iv administered as infusion for 0.5 hrs by HPLC/MS analysis", "type": "ADME, organism-based", "conditions": "in vivo"}, "[15]": {"assay": "Half life in rat at 100 mg/kg, po administered via gavage by HPLC/MS analysis", "type": "ADME, organism-based", "conditions": "in vivo"}, "Klebsiella pneumoniae [16]": {"tested_on": "Klebsiella pneumoniae", "assay": "Inhibition of Klebsiella pneumoniae KP1009 CTX-M-15 assessed as minimum concentration of compound required to reduce the MIC of aztreonam to 4 ug/ml"}, "Prothrombin": {"molecular_target": "Prothrombin (Homo sapiens, UniProt P00734)", "assay": "Inhibition of mammalian thrombin (unknown origin) using Benz-FVR-AMC as substrate preincubated for 10 mins followed by substrate addition measured after 30 mins"}, "[17]": {"assay": "Inhibition of recombinant Escherichia coli AmpC using nitrocefin as substrate preincubated for 10 mins followed by substrate addition measured every 10 secs for 10 mins by spectrophotometrically analysis"}, "Klebsiella pneumoniae [18]": {"tested_on": "Klebsiella pneumoniae", "assay": "Potentiation of ceftolozane-induced antibacterial activity against carbapenem-resistant Klebsiella pneumoniae assessed as ceftolozane MIC50 at 8 ug/ml by broth microdilution method (Rvb > 32 ug/ml)", "type": "functional"}, "Escherichia coli": {"tested_on": "Escherichia coli", "assay": "Inhibition of Escherichia coli ECM6619 TEM-10 assessed as minimum concentration of compound needed to reduce the MIC of aztreonam to 4 ug/ml"}, "Enterobacteriaceae [19]": {"tested_on": "Enterobacteriaceae", "assay": "Potentiation of ceftolozane-induced antibacterial activity against carbapenem-resistant Enterobacteriaceae assessed as ceftolozane MIC50 at 8 ug/ml by broth microdilution method (Rvb > 32 ug/ml)", "type": "functional"}, "[20]": {"assay": "Half life in rat at 300 mg/kg, po administered via gavage by HPLC/MS analysis", "type": "ADME, organism-based", "conditions": "in vivo"}, "[21]": {"assay": "Cmax in rat at 300 mg/kg, iv administered as infusion for 0.5 hrs by HPLC/MS analysis", "type": "ADME, organism-based", "parameters": "dose 300 mg/kg, route intravenous", "conditions": "in vivo"}, "[22]": {"assay": "Half life in rat at 30 mg/kg, po administered via gavage by HPLC/MS analysis", "type": "ADME, organism-based", "conditions": "in vivo"}, "[23]": {"assay": "Inhibition of recombinant Escherichia coli IMP-1 using imipenem as substrate preincubated for 10 mins followed by substrate addition measured every 30 secs for 30 mins by spectrophotometrically analysis"}, "Enterobacterales [24]": {"tested_on": "Enterobacterales", "assay": "Potentiation of meropenem-induced antibacterial activity against Enterobacterales assessed as meropenem MIC50 at 8 ug/ml by broth microdilution method (reference value: 1 ug/ml)", "type": "functional"}, "[25]": {"assay": "Oral bioavailability in rat at 300 mg/kg administered via gavage by HPLC/MS analysis", "type": "ADME, organism-based", "conditions": "in vivo"}, "[26]": {"assay": "Oral bioavailability in rat at 300 to 1000 mg/kg in fasted condition by HPLC/MS analysis", "type": "ADME, organism-based", "conditions": "in vivo"}, "Enterobacteriaceae [27]": {"tested_on": "Enterobacteriaceae", "assay": "Potentiation of ceftolozane-induced antibacterial activity against carbapenem-resistant Enterobacteriaceae assessed as ceftolozane MIC90 at 8 ug/ml by broth microdilution method (Rvb > 32 ug/ml)", "type": "functional"}, "[28]": {"assay": "Inhibition of recombinant Escherichia coli SHV-12 using nitrocefin as substrate preincubated for 10 mins followed by substrate addition measured every 10 secs for 10 mins by spectrophotometrically analysis"}, "Pseudomonas aeruginosa [29]": {"tested_on": "Pseudomonas aeruginosa", "assay": "Inhibition of Pseudomonas aeruginosa PAM 2035 AmpC assessed as minimum concentration of compound needed to reduce the MIC of aztreonam to 4 ug/ml"}, "[30]": {"assay": "Half life in rat at 100 mg/kg, iv administered as infusion for 0.5 hrs by HPLC/MS analysis", "type": "ADME, organism-based", "conditions": "in vivo"}, "Klebsiella pneumoniae [31]": {"tested_on": "Klebsiella pneumoniae", "assay": "Potentiation of ceftolozane-induced antibacterial activity against carbapenem-resistant Klebsiella pneumoniae assessed as ceftolozane MIC90 at 8 ug/ml by broth microdilution method (Rvb > 32 ug/ml)", "type": "functional"}, "Dipeptidyl peptidase 2": {"molecular_target": "Dipeptidyl peptidase 2 (Homo sapiens, UniProt Q9UHL4)", "assay": "Inhibition of mammalian DPP7 (unknown origin) using H-Lys-Pro-AMC as substrate preincubated for 10 mins followed by substrate addition measured after 30 mins"}, "[32]": {"assay": "Clearance in rat at 10 mg/kg, iv administered as infusion for 0.5 hrs by HPLC/MS analysis", "type": "ADME, organism-based", "conditions": "in vivo"}, "Klebsiella pneumoniae [33]": {"tested_on": "Klebsiella pneumoniae", "assay": "Potentiation of meropenem-induced bacteriostatic activity against carbapenem-resistant Klebsiella pneumoniae KP1244 harboring KPC-3, SHV-11, and SHV-12 infected in Swiss-Webster mouse model of neutropenic thigh infection assessed as log change in bacterial count in thigh at 5 mg/kg, ip administered at 2 hrs interval for 24 hrs starting from 2 hr post infection and measured post last dose (reference value: 0.62 log10CFU)", "type": "functional"}, "[34]": {"assay": "Clearance in rat at 100 mg/kg, iv administered as infusion for 0.5 hrs by HPLC/MS analysis", "type": "ADME, organism-based", "conditions": "in vivo"}, "[35]": {"assay": "Oral bioavailability in rat at 30 mg/kg in fasted state by HPLC/MS analysis", "type": "ADME, organism-based", "conditions": "in vivo"}, "[36]": {"assay": "AUC in rat at 300 mg/kg, po administered via gavage by HPLC/MS analysis", "type": "ADME, organism-based", "conditions": "in vivo"}, "Klebsiella pneumoniae [37]": {"tested_on": "Klebsiella pneumoniae", "assay": "Potentiation of cefepime-induced antibacterial activity against carbapenem-resistant Klebsiella pneumoniae assessed as cefepime MIC50 at 8 ug/ml by broth microdilution method (reference value: 32 ug/ml)", "type": "functional"}, "[38]": {"assay": "AUC in rat at 30 mg/kg, po administered via gavage by HPLC/MS analysis", "type": "ADME, organism-based", "conditions": "in vivo"}}, "data": [{"smiles": "O=C(O)c1c(F)ccc2c1OB(O)[C@@H]1C[C@H]21", "note": "[XERUBORBACTAM]", "values": [{"measurement": "MIC90", "setting": "Pseudomonas aeruginosa [1]", "value": 8, "unit": "µg/mL"}, {"measurement": "MIC90", "setting": "Enterobacterales [2]", "value": 0.25, "unit": "µg/mL"}, {"measurement": "Cmax", "setting": "[3]", "value": 26100, "unit": "ng/mL"}, {"measurement": "MEC", "setting": "Klebsiella pneumoniae [4]", "value": 0.6, "unit": "µg/mL"}, {"measurement": "MIC50", "setting": "Acinetobacter baumannii [5]", "value": 0.5, "unit": "µg/mL"}, {"measurement": "bioavailability", "setting": "[6]", "value": 24.3, "unit": "%"}, {"measurement": "AUC at 0.5 h", "setting": "[7]", "value": 608, "unit": "µg·h/mL"}, {"measurement": "Cmax", "setting": "[8]", "value": 8600, "unit": "ng/mL"}, {"measurement": "logD", "setting": "[9]", "value": -2.85}, {"measurement": "half-life", "setting": "[10]", "value": 4, "unit": "h"}, {"measurement": "MIC90", "setting": "Acinetobacter baumannii [11]", "value": 32, "unit": "µg/mL"}, {"measurement": "MEC", "setting": "[12]", "value": 1.25, "unit": "µg/mL"}, {"measurement": "fraction unbound", "setting": "[13]", "value": 0.15}, {"measurement": "clearance", "setting": "[14]", "value": 8.17, "unit": "mL/min/kg"}, {"measurement": "half-life", "setting": "[15]", "value": 3.23, "unit": "h"}, {"measurement": "MEC", "setting": "Klebsiella pneumoniae [16]", "value": 0.3, "unit": "µg/mL"}, {"measurement": "IC50", "setting": "Prothrombin", "value": "> 100", "unit": "µM"}, {"measurement": "Ki", "setting": "[17]", "value": 0.0085, "unit": "µM"}, {"measurement": "MIC50", "setting": "Klebsiella pneumoniae [18]", "value": 0.125, "unit": "µg/mL"}, {"measurement": "MEC", "setting": "Escherichia coli", "value": 0.16, "unit": "µg/mL"}, {"measurement": "MIC50", "setting": "Enterobacteriaceae [19]", "value": 0.125, "unit": "µg/mL"}, {"measurement": "half-life", "setting": "[20]", "value": 3.65, "unit": "h"}, {"measurement": "Cmax", "setting": "[21]", "value": 544000, "unit": "ng/mL"}, {"measurement": "half-life", "setting": "[22]", "value": 4.4, "unit": "h"}, {"measurement": "Ki", "setting": "[23]", "value": 0.22, "unit": "µM"}, {"measurement": "MIC50", "setting": "Enterobacterales [24]", "value": "≤ 0.015", "unit": "µg/mL"}, {"measurement": "bioavailability", "setting": "[25]", "value": 28, "unit": "%"}, {"measurement": "bioavailability", "setting": "[26]", "value": "24 to 28", "unit": "%"}, {"measurement": "MIC90", "setting": "Enterobacteriaceae [27]", "value": 1, "unit": "µg/mL"}, {"measurement": "Ki", "setting": "[28]", "value": 0.00074, "unit": "µM"}, {"measurement": "MEC", "setting": "Pseudomonas aeruginosa [29]", "value": 5, "unit": "µg/mL"}, {"measurement": "half-life", "setting": "[30]", "value": 1.46, "unit": "h"}, {"measurement": "MIC90", "setting": "Klebsiella pneumoniae [31]", "value": 0.5, "unit": "µg/mL"}, {"measurement": "IC50", "setting": "Dipeptidyl peptidase 2", "value": "> 1000", "unit": "µM"}, {"measurement": "clearance", "setting": "[32]", "value": 4.83, "unit": "mL/min/kg"}, {"measurement": "Activity", "setting": "Klebsiella pneumoniae [33]", "value": -0.88, "unit": "log10CFU"}, {"measurement": "clearance", "setting": "[34]", "value": 7.83, "unit": "mL/min/kg"}, {"measurement": "bioavailability", "setting": "[35]", "value": 43, "unit": "%"}, {"measurement": "AUC", "setting": "[36]", "value": 177, "unit": "µg·h/mL"}, {"measurement": "MIC50", "setting": "Klebsiella pneumoniae [37]", "value": "≤ 0.06", "unit": "µg/mL"}, {"measurement": "AUC", "setting": "[38]", "value": 34, "unit": "µg·h/mL"}]}]}
